According to patent US20120077734A1, “Methods and assays for treating conditions in which macrophages play a pathogenic role” (priority 2010, published 2012):

Key:
[1] = test system: intracellular levels of ATP; details: non-specific effects; cited from earlier work
N-WASP = N-WASP (Homo sapiens, UniProt O00401); details: Peterson et al., 2004; cited from earlier work
WASP = target: T1, WASP (Homo sapiens, UniProt P42768); details: cited from earlier work
T1 sequence (P42768 1-502): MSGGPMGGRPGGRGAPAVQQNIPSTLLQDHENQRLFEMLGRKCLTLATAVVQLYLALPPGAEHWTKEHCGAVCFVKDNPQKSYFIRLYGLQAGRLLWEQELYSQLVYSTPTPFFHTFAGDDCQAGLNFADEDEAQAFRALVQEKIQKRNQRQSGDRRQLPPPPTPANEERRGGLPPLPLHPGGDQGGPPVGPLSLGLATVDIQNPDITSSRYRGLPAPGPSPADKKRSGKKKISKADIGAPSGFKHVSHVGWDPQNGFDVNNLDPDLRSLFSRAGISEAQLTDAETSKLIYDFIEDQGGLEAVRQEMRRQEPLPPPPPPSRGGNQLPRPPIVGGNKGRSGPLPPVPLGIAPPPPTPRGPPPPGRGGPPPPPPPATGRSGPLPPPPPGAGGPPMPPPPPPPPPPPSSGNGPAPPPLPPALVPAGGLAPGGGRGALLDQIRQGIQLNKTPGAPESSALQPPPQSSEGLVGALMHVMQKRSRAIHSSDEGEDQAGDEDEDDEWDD

MTLn3 tumor = assay: in vivo needle invasion assay; parameters: species or system mice; details: needle with EGF vs buffer, 4 hours (FIG. 6)
Method: FIG. 6A-6B. WASP is required for macrophage dependent carcinoma cell invasion in vivo. (A) Schematic illustration of in vivo invasion assay. (B) Quantification of the number of cells collected into the needle after 4 hours with EGF or without EGF (buffer) from wildtype, WASP+/− or WASP−/− mice bearing MTLn3 tumor. Cell counting was performed single blinded where the counter was not aware of the genotype of the mice. n=4 independent WT and 4 WASp−/− mice used) Error bars signify SEM. ** p<0.01 compared to buffer and EGF needle in WASP−/− mice.
The presence and absence of WASP in tumors was further characterized to determine the precise defect in the absence of WASP that led to reduced metastasis. […] Carcinoma cell invasiveness in the tumor was monitored and analyzed using a well established in vivo needle invasion assay that mimics the invasion of carcinoma cells into a blood vessel, according to Wyckoff et al. (Wyckoff, Segall et al. 2000). […] Additionally, a reduction was also observed in the motility of carcinoma cells in the tumors of WASP deficient mice as compared with control mice (FIG. 7).

MTLn3 = assay: 3D collagen invasion assay of MTLn3 carcinoma cells (macrophage co-culture or BMM conditioned media); assay type: cell-based; details: KO CM with exogenously added 25 nM EGF (FIG. 2C)
Excerpt: FIG. 1A-1D. WASP is required for macrophage-dependent breast carcinoma cell invasion. (A) Schematic illustration of the 3D invasion assay. (B) X-Z reconstruction of confocal images of 3D invasion assay using celltracker green labeled carcinoma cells (MTLn3) cultured on their own or co-cultured with celltracker red labeled primary bone marrow derived macrophages (BMM) isolated from either wild type (WT) or WASP knockout (WASP−/−) mice. Dotted line indicates the arbitrary threshold for measuring invasion at 20 μm (˜2 cell diameter). Quantification of cell tracker dye labeled (C) macrophage and (D) MTLn3 invasion. Fluorescence from cells was recorded at 5 μm step size. Collagen invasion is plotted as fraction of cells where fluorescence intensities above 20 μm are divided by total fluorescence from the entire stack (n=3 mice per genotype, age and sex matched). […]
FIG. 2A-2C. […] (A) Quantification of the MTLn3 invasion by MTLn3 cells alone, in response to wildtype BMM conditioned media (WT-CM) or conditioned media from WASP deficient mice (+KO CM) p<** 0.01 ***0.001 compared to wild-type macrophage conditioned media (WT CM). (B) Quantification of the MTLn3 invasion by MTLn3 cells alone, with wildtype BMM conditioned media (WT-CM) alone or with control IgG (Ctrl IgG) or with two different neutralizing anti-EGF antibodies generated in goat or rabbit (nEGF-G or nEGF-R). […]

Sequence of N-WASP (O00401 whole entry, species assumed): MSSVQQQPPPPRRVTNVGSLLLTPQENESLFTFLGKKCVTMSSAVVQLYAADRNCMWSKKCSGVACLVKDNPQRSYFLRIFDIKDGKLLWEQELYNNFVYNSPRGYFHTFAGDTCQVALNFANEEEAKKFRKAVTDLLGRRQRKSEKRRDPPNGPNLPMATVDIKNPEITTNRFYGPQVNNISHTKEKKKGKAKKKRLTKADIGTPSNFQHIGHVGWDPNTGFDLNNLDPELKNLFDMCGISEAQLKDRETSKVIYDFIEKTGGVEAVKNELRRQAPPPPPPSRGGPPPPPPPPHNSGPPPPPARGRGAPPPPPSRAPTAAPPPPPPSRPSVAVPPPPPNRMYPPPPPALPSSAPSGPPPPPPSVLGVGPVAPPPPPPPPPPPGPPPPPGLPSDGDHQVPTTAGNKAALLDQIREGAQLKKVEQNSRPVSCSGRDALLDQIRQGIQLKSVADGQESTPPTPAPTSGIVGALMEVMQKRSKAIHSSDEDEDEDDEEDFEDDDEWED

| Compound | intracellular levels of ATP [1] | inhibition of N-WASP (N-WASP) | inhibition of WASP (WASP) | number of carcinoma cells collected into needle (MTLn3 tumor; tumor bearing WASP-deficient mice) | number of carcinoma cells collected into needle (MTLn3 tumor; tumor bearing control mice) | MTLn3 invasion with WASP deficient BMM conditioned media (MTLn3) |
| --- | --- | --- | --- | --- | --- | --- |
| CN(C)C[C@H](O)Cn1c2ccc(Br)cc2c2cc(Br)ccc21 (racemic) [wiskostatin] | lowers the intracellular levels of ATP | inhibitor of N-WASP | also inhibits WASP | – | – | – |
| EGF: epidermal growth factor, carcinoma cell chemoattractant (NSDSECPLSHDGYCLHDGVCMYIEALDKYACNCVVGYIGERCQYRDLKWWELR; UniProt P01133 971-1023, looked up) | – | – | – | no difference in the number of cells collected | significantly enhanced the number of carcinoma cells collected into a needle | restored carcinoma cell invasion |
